Results reported in US20060194837A1, “Tetrahydroisoquinoline compounds” (priority 2004, published 2006).
Read-outs that look alike come from different tables or passages of the source.

Columns and labels:
human SERT = target: T1, human SERT (Homo sapiens, UniProt P31645); experiment: Human SERT binding (3H-citalopram displacement); conditions: HEK293 membranes expressing human SERT, rt 1 h
T1 construct: expressed in transfected cells; host or cells: HEK293 membranes
Description: Homogenized HEK293 (Human Embryonic Kidney) membranes expressing the human SERT were incubated with ^3H-citalopram (SERT) at rt for 1 h in 50 mM Tris, 120 mM NaCl, 5 mM KCl (pH 7.4). […] The membranes were washed and the radioactivity was counted as above.

Rat SERT = target: T2, Rat SERT (Rattus norvegicus, UniProt P31652); experiment: Rat brain SERT binding ([3H]-citalopram displacement); conditions: rat brain membranes without cerebellum, 0.6 nM [3H]-citalopram, 60 min at 25° C.
T2 construct: A rat brain without cerebellum (Zivic Laboratories, Inc.—Pittsburgh, Pa.) was homogenized; tissue Zivic Laboratories, Inc; host or cells: rat brain without cerebellum, membranes
T2 sequence (P31652 whole entry): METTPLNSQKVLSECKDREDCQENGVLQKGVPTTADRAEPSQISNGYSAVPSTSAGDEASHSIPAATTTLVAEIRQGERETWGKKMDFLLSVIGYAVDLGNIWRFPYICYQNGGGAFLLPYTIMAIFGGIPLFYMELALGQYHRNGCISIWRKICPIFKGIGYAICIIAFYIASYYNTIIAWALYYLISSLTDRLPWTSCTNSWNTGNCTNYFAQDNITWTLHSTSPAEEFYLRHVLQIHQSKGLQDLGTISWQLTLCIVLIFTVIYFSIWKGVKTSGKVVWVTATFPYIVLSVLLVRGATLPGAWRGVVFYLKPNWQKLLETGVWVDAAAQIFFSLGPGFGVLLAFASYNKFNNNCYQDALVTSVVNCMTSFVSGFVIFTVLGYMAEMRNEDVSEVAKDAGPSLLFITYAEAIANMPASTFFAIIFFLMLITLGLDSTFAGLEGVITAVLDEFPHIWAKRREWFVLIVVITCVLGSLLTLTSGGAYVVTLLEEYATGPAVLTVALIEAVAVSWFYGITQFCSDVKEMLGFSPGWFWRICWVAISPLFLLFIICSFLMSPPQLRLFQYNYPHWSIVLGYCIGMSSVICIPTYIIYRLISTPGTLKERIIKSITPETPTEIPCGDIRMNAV
Description: The supernatant was removed and re-centrifuged at 15,000 rpm for 30 min. […] Membranes were incubated with 0.6 nM [^3H]-Citalopram plus/minus test compounds for 60 min at 25° C. and harvested by rapid filtration over GF/C glass fiber filters (pretreated with 0.3% polyethylenimine) followed by four washes with ice-cold buffer.

human H3 receptor = target: T3, human H3 receptor (Homo sapiens, UniProt Q9Y5N1); experiment: H3 receptor binding (N-[3H]-α-methylhistamine displacement); conditions: membranes of SK-N-MC cells expressing cloned human H3 receptor, 0.8 nM N-[3H]-α-methylhistamine, 60 min at 25° C.
T3 construct: expressed in transfected cells
T3 sequence (Q9Y5N1 whole entry): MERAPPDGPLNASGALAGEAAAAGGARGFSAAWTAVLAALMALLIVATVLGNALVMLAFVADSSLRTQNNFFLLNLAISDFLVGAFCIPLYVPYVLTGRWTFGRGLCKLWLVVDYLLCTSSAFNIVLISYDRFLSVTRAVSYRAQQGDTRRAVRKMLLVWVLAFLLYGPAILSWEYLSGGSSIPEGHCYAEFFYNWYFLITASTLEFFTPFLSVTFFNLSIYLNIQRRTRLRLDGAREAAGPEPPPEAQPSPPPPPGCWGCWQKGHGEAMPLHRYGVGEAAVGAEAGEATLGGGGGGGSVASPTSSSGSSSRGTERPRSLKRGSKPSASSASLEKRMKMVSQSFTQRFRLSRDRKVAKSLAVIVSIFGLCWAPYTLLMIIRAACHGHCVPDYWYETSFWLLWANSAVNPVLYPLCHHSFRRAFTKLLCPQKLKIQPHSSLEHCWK

T1 sequence (P31645 whole entry): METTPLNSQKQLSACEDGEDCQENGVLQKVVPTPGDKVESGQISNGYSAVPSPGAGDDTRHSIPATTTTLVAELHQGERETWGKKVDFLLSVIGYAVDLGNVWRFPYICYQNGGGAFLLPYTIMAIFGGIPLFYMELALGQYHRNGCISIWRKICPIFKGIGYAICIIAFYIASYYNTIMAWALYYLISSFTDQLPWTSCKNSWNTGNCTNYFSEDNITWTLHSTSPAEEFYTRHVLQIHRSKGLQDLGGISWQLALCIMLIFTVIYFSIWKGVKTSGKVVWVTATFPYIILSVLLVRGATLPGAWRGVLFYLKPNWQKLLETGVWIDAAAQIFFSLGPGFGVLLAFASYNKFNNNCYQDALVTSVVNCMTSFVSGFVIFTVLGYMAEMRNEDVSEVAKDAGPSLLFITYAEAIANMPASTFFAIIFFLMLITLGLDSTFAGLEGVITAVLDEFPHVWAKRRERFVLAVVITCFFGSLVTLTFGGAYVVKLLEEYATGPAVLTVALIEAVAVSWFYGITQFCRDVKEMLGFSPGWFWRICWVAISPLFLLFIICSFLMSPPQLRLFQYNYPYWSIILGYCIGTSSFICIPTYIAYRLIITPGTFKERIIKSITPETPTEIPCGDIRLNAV

| SMILES | Ki (human SERT) | Ki (Rat SERT; read-out: Rat SERT Ki) | Ki (human H3 receptor) | Ki (Rat SERT; Rat SERT Ki (nM)) |
| --- | --- | --- | --- | --- |
| COc1ccc(C2CN(C)Cc3cc(OCCCN4CCC(F)CC4)ccc32)cc1 (single isomer, unassigned) [Example 1A, 7-[3-(4-Fluoro-piperidin-1-yl)-propoxy]-4-(4-methoxy-phenyl)-2-methyl-1,2,3,4-tetrahydro-isoquinoline] | 9 nM | 6 nM |  |  |
| COc1ccc(C2CN(C)Cc3cc(OCCCN4CCC(F)CC4)ccc32)cc1 (single isomer, unassigned) [Example 1B, 7-[3-(4-Fluoro-piperidin-1-yl)-propoxy]-4-(4-methoxy-phenyl)-2-methyl-1,2,3,4-tetrahydro-isoquinoline] | 3 nM | 2 nM |  |  |
| COc1ccc(C2CN(C)Cc3cc(OCCCN4CCCC(F)(F)C4)ccc32)cc1 (single isomer, unassigned) [Example 29B, 7-[3-(3,3-Difluoro-piperidin-1-yl)-propoxy]-4-(4-methoxy-phenyl)-2-methyl-1,2,3,4-tetrahydro-isoquinoline] | 6 nM | 8 nM |  |  |
| CSc1ccc(C2CN(C)Cc3cc(OCCCN4CCC(F)CC4)ccc32)cc1 (single isomer, unassigned) [Example 153, 7-[3-(4-Fluoro-piperidin-1-yl)-propoxy]-2-methyl-4-(4-methylsulfanyl-phenyl)-1,2,3,4-tetrahydro-isoquinoline] | 2 nM |  |  | 2 nM |
| CCCNCCCOc1ccc2c(c1)CN(C)CC2c1ccc(OC)cc1 (stereo not shown) [Example 231, {3-[4-(4-Methoxy-phenyl)-2-methyl-1,2,3,4-tetrahydro-isoquinolin-7-yloxy]-propyl}-propyl-amine] |  | 2 nM | 61 nM |  |
| COc1ccc(C2CN(C)Cc3cc(OCCCN(C)C(C)C)ccc32)cc1 (stereo not shown) [Example 233, Isopropyl-{3-[4-(4-methoxy-phenyl)-2-methyl-1,2,3,4-tetrahydro-isoquinolin-7-yloxy]-propyl}-methyl-amine] |  | 3 nM | 4 nM |  |
| COc1ccc(C2CN(C)Cc3cc(OCCCN(C)C4CC4)ccc32)cc1 (stereo not shown) [Example 234, Cyclopropyl-{3-[4-(4-methoxy-phenyl)-2-methyl-1,2,3,4-tetrahydro-isoquinolin-7-yloxy]-propyl}-methyl-amine] |  | 3 nM | 3 nM |  |
| COc1ccc(C2CN(C)Cc3cc(OCCCN(C4CC4)C4CC4)ccc32)cc1 (stereo not shown) [Example 235, Dicyclopropyl-{3-[4-(4-methoxy-phenyl)-2-methyl-1,2,3,4-tetrahydro-isoquinolin-7-yloxy]-propyl}-amine] |  | 7 nM | 6 nM |  |
| COc1ccc(C2CN(C)Cc3cc(OC4CCN(CC#N)CC4)ccc32)cc1 (stereo not shown) [Example 242] |  | 6 nM | 124 nM |  |
| CSc1ccc(C2CN(C)Cc3cc(OC4CCN(C5CCOCC5)CC4)ccc32)cc1 (stereo not shown) [Example 246, 2-Methyl-4-(4-methylsulfanyl-phenyl)-7-[1-(tetrahydro-pyran-4-yl)-piperidin-4-yloxy]-1,2,3,4-tetrahydro-isoquinoline] |  | 10 nM | 3 nM |  |
| COc1ccc(C2CN(C)Cc3cc(OCC4CCN(C5CCC5)CC4)ccc32)cc1 (stereo not shown) [Example 248, 7-(1-Cyclobutyl-piperidin-4-ylmethoxy)-4-(4-methoxy-phenyl)-2-methyl-1,2,3,4-tetrahydro-isoquinoline] |  | 7 nM | 5 nM |  |
| COc1ccc(C2CN(C)Cc3cc(OC[C@@H]4CNCCO4)ccc32)cc1 (stereo partly drawn) [Example 252, 4-(4-Methoxy-phenyl)-2-methyl-7-(morpholin-2S-ylmethoxy)-1,2,3,4-tetrahydro-isoquinoline] |  | 2 nM | 233 nM |  |
| COc1ccc(C2CN(C)Cc3cc(OCCCN4CCOCC4)c(C)cc32)cc1 (stereo not shown) [Example 266, 4-(4-Methoxy-phenyl)-2,6-dimethyl-7-(3-morpholin-4-yl-propoxy)-1,2,3,4-tetrahydro-isoquinoline] |  | 31 nM | 14 nM |  |
| COc1ccc(C2CN(C)Cc3c2ccc(OCCCN2CCOCC2)c3C)cc1 (stereo not shown) [Example 269, 4-(4-Methoxy-phenyl)-2,8-dimethyl-7-(3-morpholin-4-yl-propoxy)-1,2,3,4-tetrahydro-isoquinoline] |  | 23 nM | 44 nM |  |

The next lines start with results.

| Ki (human SERT) | Ki (Rat SERT; read-out: Rat SERT Ki) | Ki (human H3 receptor) | SMILES | Ki (Rat SERT; Rat SERT Ki (nM)) |
| --- | --- | --- | --- | --- |
| 3 nM | 2 nM |  | COc1ccc(C2CN(C)Cc3cc(OCCCN4CCC(F)CC4)ccc32)cc1 (racemic) [Example 1, 7-[3-(4-Fluoro-piperidin-1-yl)-propoxy]-4-(4-methoxy-phenyl)-2-methyl-1,2,3,4-tetrahydro-isoquinoline] |  |
| 8 nM | 14 nM |  | COc1ccc(C2CN(C)Cc3cc(OCCCN4CCCC(F)(F)C4)ccc32)cc1 (racemic) [Example 29, 7-[3-(3,3-Difluoro-piperidin-1-yl)-propoxy]-4-(4-methoxy-phenyl)-2-methyl-1,2,3,4-tetrahydro-isoquinoline] |  |
| 13 nM |  |  | COc1ccc(C2CN(C)Cc3cc(OCCCN4CCCC(F)(F)C4)ccc32)cc1 (single isomer, unassigned) [Example 29A, 7-[3-(3,3-Difluoro-piperidin-1-yl)-propoxy]-4-(4-methoxy-phenyl)-2-methyl-1,2,3,4-tetrahydro-isoquinoline] |  |
|  | 1 nM | 52 nM | C=CCNCCCOc1ccc2c(c1)CN(C)CC2c1ccc(OC)cc1 (stereo not shown) [Example 227, Allyl-{3-[4-(4-methoxy-phenyl)-2-methyl-1,2,3,4-tetrahydro-isoquinolin-7-yloxy]-propyl}-amine] |  |
|  | 1 nM | 38 nM | COc1ccc(C2CN(C)Cc3cc(OCCCNCC(C)C)ccc32)cc1 (stereo not shown) [Example 228, Isobutyl-{3-[4-(4-methoxy-phenyl)-2-methyl-1,2,3,4-tetrahydro-isoquinolin-7-yloxy]-propyl}-amine] |  |
|  | 2 nM | 18 nM | COc1ccc(C2CN(C)Cc3cc(OCCCNC4CC4)ccc32)cc1 (stereo not shown) [Example 229, Cyclopropyl-{3-[4-(4-methoxy-phenyl)-2-methyl-1,2,3,4-tetrahydro-isoquinolin-7-yloxy]-propyl}-amine] |  |
|  | 1 nM | 17 nM | COc1ccc(C2CN(C)Cc3cc(OCCCNC(C)C)ccc32)cc1 (stereo not shown) [Example 230, Isopropyl-{3-[4-(4-methoxy-phenyl)-2-methyl-1,2,3,4-tetrahydro-isoquinolin-7-yloxy]-propyl}-amine] |  |
|  | 1 nM | 20 nM | CCNCCCOc1ccc2c(c1)CN(C)CC2c1ccc(OC)cc1 (stereo not shown) [Example 232, Ethyl-{3-[4-(4-methoxy-phenyl)-2-methyl-1,2,3,4-tetrahydro-isoquinolin-7-yloxy]-propyl}-amine] |  |
|  | 2 nM | 30 nM | CSc1ccc(C2CN(C)Cc3cc(OCC4CN(CCF)C4)ccc32)cc1 (stereo not shown) [Example 239, 7-[1-(2-Fluoro-ethyl)-azetidin-3-ylmethoxy]-2-methyl-4-(4-methylsulfanyl-phenyl)-1,2,3,4-tetrahydro-isoquinoline] |  |
|  | 7 nM | 129 nM | CSc1ccc(C2CN(C)Cc3cc(OC4CCN(CCC(F)(F)F)CC4)ccc32)cc1 (stereo not shown) [Example 244, 2-Methyl-4-(4-methylsulfanyl-phenyl)-7-[1-(3,3,3-trifluoro-propyl)-piperidin-4-yloxy]-1,2,3,4-tetrahydro-isoquinoline] |  |
|  | 7 nM | 336 nM | CSc1ccc(C2CN(C)Cc3cc(OC4CCN(CC#N)CC4)ccc32)cc1 (stereo not shown) [Example 245, {4-[2-Methyl-4-(4-methylsulfanyl-phenyl)-1,2,3,4-tetrahydro-isoquinolin-7-yloxy]-piperidin-1-yl}-acetonitrile] |  |
|  | 6 nM | 4 nM | COc1ccc(C2CN(C)Cc3cc(OCC4CCN(C5CC5)CC4)ccc32)cc1 (stereo not shown) [Example 249, 7-(1-Cyclopropyl-piperidin-4-ylmethoxy)-4-(4-methoxy-phenyl)-2-methyl-1,2,3,4-tetrahydro-isoquinoline] |  |
|  | 4 nM | 34 nM | COc1ccc(C2CN(C)Cc3cc(OCC4CCN(CC(C)(C)O)CC4)ccc32)cc1 (stereo not shown) [Example 250, 1-{4-[4-(4-Methoxy-phenyl)-2-methyl-1,2,3,4-tetrahydro-isoquinolin-7-yloxymethyl]-piperidin-1-yl}-2-methyl-propan-2-ol] |  |
|  | 2 nM | 263 nM | COc1ccc(C2CN(C)Cc3cc(OC[C@H]4CNCCO4)ccc32)cc1 (stereo partly drawn) [Example 253, 4-(4-Methoxy-phenyl)-2-methyl-7-(morpholin-2R-ylmethoxy)-1,2,3,4-tetrahydro-isoquinoline] |  |
|  | 25 nM | 12 nM | COc1ccc(C2CN(C)Cc3cc(OCCCN4CCOCC4)c(C)cc32)cc1F (stereo not shown) [Example 267, 4-(3-Fluoro-4-methoxy-phenyl)-2,6-dimethyl-7-(3-morpholin-4-yl-propoxy)-1,2,3,4-tetrahydro-isoquinoline] |  |
|  | 12 nM | 18 nM | COc1ccc(C2CN(C)Cc3c2ccc(OCCCN2CCOCC2)c3C)cc1F (stereo not shown) [Example 268, 4-(3-Fluoro-4-methoxy-phenyl)-2,8-dimethyl-7-(3-morpholin-4-yl-propoxy)-1,2,3,4-tetrahydro-isoquinoline] |  |
|  | 18 nM | 6 nM | CSc1ccc(C2CN(C)Cc3cc(OCCCN4CCCCC4)c(C)cc32)cc1 (stereo not shown) [Example 270, 2,6-Dimethyl-4-(4-methylsulfanyl-phenyl)-7-(3-piperidin-1-yl-propoxy)-1,2,3,4-tetrahydro-isoquinoline] |  |
